According to PMC5566834 (2017):

What was measured:
[1] = test system: Rd 13 (DNA, aptamer) CGGGGGGAGGCGGAGGGAGGACTGGGGCTTCATTGACGTTCTTCACAGTAGGGGTAAGGGCTTAGGTGGTTGGTGCCTG; experiment: competitive fluorescence anisotropy; conditions: 140 mM Na+, 2 mM K+, 5 mM Mg2+, 2 mM Ca2+, 20 mM Tris pH 7.4, PosBD displaced, 1,000 pmol drug in 125 μl
[2] = test system: Rd 13 Scrambled (S) (DNA, aptamer) GCTGTGTGCGTGAGTGGAGTGCGCGCGAGAGTGAGTGCGGTGAGAGATTCGGTGTGCGTGTCGTGATGAATGCGACCGG; experiment: circular dichroism; conditions: 0.2 mM Mg2+; 20 mM Tris pH 7.4; 10 μM aptamer, 100 μM posaconazole; no CD change
[3] = test system: amino-Rd 13 (DNA, aptamer) CGGGGGGAGGCGGAGGGAGGACTGGGGCTTCATTGACGTTCTTCACAGTAGGGGTAAGGGCTTAGGTGGTTGGTGCCTG; experiment: graphene field effect transistor, Dirac voltage shift; conditions: 140 mM Na+, 2 mM K+, 5 mM Mg2+, 2 mM Ca2+; SELEX buffer (20 mM Tris pH 7.4, 0.05% Tween); Langmuir-Hill fit; also printed as 1.8 ± 0.5 μg/ml

| Structure (SMILES) | binding ([1]; less than posaconazole) | binding [2] | binding ([1]; greatest displacement) | dissociation constant [3] [µM] |
| --- | --- | --- | --- | --- |
| CCC(C)n1ncn(-c2ccc(N3CCN(c4ccc(OCC5COC(Cn6cncn6)(c6ccc(Cl)cc6Cl)O5)cc4)CC3)cc2)c1=O (stereo not shown) | weak |  |  |  |
| CC[C@@H]([C@H](C)O)n1ncn(-c2ccc(N3CCN(c4ccc(OC[C@@H]5CO[C@@](Cn6cncn6)(c6ccc(F)cc6F)C5)cc4)CC3)cc2)c1=O |  | no | yes | 2.6 ± 0.7 |
